Assay results published in PubChem BioAssay AID463100 (The Scripps Research Institute Molecular Screening Center, 2010).

These molecules were tested on VIM-2-transformed E. coli growth with imipenem, MIC (assay: MIC of VIM-2 E. coli under carbapenem – VIM-2-transformed E. coli, imipenem co-treatment, counter-screen for IMP-1 and VIM-2 inhibitor project, late-stage follow-up (AID 463100)).
Molecule `COc1cccc[c]1[Hg+]` has an MIC of 0.781 µM.
`[Hg+][c]1ccccc1` gave an MIC of 0.625 µM.
With `O=C(O)c1cc[c]([Hg][Cl])cc1` the MIC was 9.37 µM.
Molecule `Cc1cc[c]([Hg+])cc1` has an MIC of 0.651 µM.
`O=C(O)c1ccc[c]([Hg+])c1` showed an MIC of 2.08 µM.
With `CC(=O)Nc1cc[c]([Hg+])cc1` the MIC was 2.5 µM.
